# The METLIN SMRT retention time set (Domingo-Almenara et al. 2019)
# Experiment: gradient 5% acetonitrile 3 min, to 50% in 2 min, to 85% in 15 min, held 3 min, 100 µL/min
# Settings: column: Zorbax Extend-C18 2.1 x 50 mm; eluents: water / acetonitrile, 0.1% formic acid
# How it was run: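 Pure standards were analyzed in mixtures of ~100 molecules using HPLC coupled to a quadrupole time-of-flight mass spectrometer, in both positive and negative ionization mode. Separation used a Zorbax Extend-C18 column (2.1 × 50 mm, 1.8 μm) at 100 μL/min, with water and acetonitrile each containing 0.1% formic acid. Dead and dwell volumes were 40 μL and 900 μL, and data were collected over 3 months. Retention time was read from computationally picked adduct peaks, each inspected manually.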
row,RP-LC retention time,SMILES
1,806 s,CC1=C(c2ccc(F)cc2)S(=O)(=O)N=C1N1CCCN(C(=O)c2cccs2)CC1
2,1140 s,CCn1c(C(=O)NCc2ccc(F)cc2)cc2sc(Cl)cc21
3,906 s,CCOc1ccc(N2C(=O)C3N=NN(Cc4nc(-c5ccc(OC)c(OC)c5)no4)C3C2=O)cc1 (stereo not given)
4,796 s,CCC(=O)N1CCCN(C2=NS(=O)(=O)C(c3ccc(CC)cc3)=C2C)CC1
5,1130 s,CCCCCCC(C)OC(=O)c1ccccc1C(=O)O (stereo not given)
6,642 s,CNC(=O)c1n[nH]c2c1CC(C)CC2 (stereo not given)
7,914 s,O=C(NCC(=O)N1CCCc2ccccc21)C1CCN(S(=O)(=O)c2ccc(Cl)cc2)CC1
8,863 s,O=C(Nc1cccc(Cl)c1)c1cn(CC(O)c2ccc3c(c2)OCO3)nn1 (stereo not given)
9,684 s,CCOc1ccccc1C(=O)NC1CCN(c2cc(-c3ccccc3)[nH]n2)C1 (stereo not given)
10,753 s,Cn1cnc(S(=O)(=O)N2CCC(C(=O)Nc3cccc(Cl)c3)CC2)c1
11,844 s,CCCN(CC1CCOC1)C(=O)Nc1cc(F)ccc1F (stereo not given)
12,572 s,CS(=O)(=O)N1CCCNCCNC(=O)CC1c1ccccc1 (stereo not given)
13,650 s,CC(C)N1CCC2(CC1)CN(C(=O)NCc1ccco1)Cc1ccccc1O2
14,779 s,O=C(c1ccc(N2CCOCC2)nn1)N1CCN(c2cccc(C(F)(F)F)c2)CC1
15,976 s,CCCCOC(=O)c1ccc(NC(=O)c2ccc(N3CCCCS3(=O)=O)cc2)cc1
16,886 s,CCC(=O)N1CCc2sc(S(=O)(=O)N3CCN(c4ccc(OC)cc4)CC3)cc2C1
17,859 s,CCCCC(=O)Nc1nnc(SCc2nnc(-c3ccc4c(c3)OCO4)o2)s1
18,649 s,CCn1cnnc1C1CCCCN1C(=O)Cc1c[nH]c2ccccc12 (stereo not given)
19,606 s,C#CCOCC(O)CN1CCN(C(c2ccccc2)c2ccccc2)CC1 (stereo not given)
20,1260 s,COc1ccccc1N1CCN(c2cc(SCC(=O)Nc3ccc(Cl)cc3F)ncn2)CC1
21,1010 s,CCOC(=O)C(CC)n1cccc1-c1nc(-c2cccnc2)no1 (stereo not given)
22,1000 s,CCOC(=O)C(Cc1c(C)[nH]c2ccccc12)C(=O)OCC
23,642 s,CCOC(=O)c1ccc(NC(=O)CC2Sc3ncnn3C2=O)cc1 (stereo not given)

row,RP-LC retention time,SMILES
1,676 s,O=C(CCC1CCN(c2cc(NC3CC3)ncn2)CC1)NCc1ccccc1Cl
2,871 s,CCN1C[C@H](C)n2c(c(O)c3c(=O)n(Cc4ccc(F)c(Cl)c4)nc(C(=O)NC)c32)C1=O
3,998 s,CCCS(=O)(=O)c1nc2ccc(NS(=O)(=O)c3cc(C)cc(C)c3)cc2s1
4,1260 s,CCc1nc2cc(-c3noc(-c4ccccc4Br)n3)ccc2o1
5,765 s,CCC(C)C(NC(=O)c1ccc(C)cc1)C(=O)Nc1nc2ccccc2[nH]1 (stereo not given)
6,681 s,COc1cccc(Nc2c(-c3ccc(C(=O)O)cc3)nc3cnccn23)c1
7,681 s,CCOc1ccc(NC(=O)N2CCN(Cc3nc4ccccc4o3)CC2)cc1
8,1040 s,COc1ccc(-c2noc(C3CC(=O)N(c4ccc(Cl)cc4)C3)n2)cc1 (stereo not given)
9,875 s,CCc1noc(-c2ccc(SCC(=O)N3CCCCC3)nc2)n1
10,645 s,CCC1CN2C=Nc3oc(C)c(C(=O)NCCc4ccc(OC)c(OC)c4)c3C2=N1 (stereo not given)
11,784 s,O=C(Nc1ccccc1)N1CCC(n2cnc3c(Cl)cccc3c2=O)CC1
12,750 s,Cc1cc(=O)n(CC(=O)Nc2ccc(Br)cc2F)c(N2CCC(C)CC2)n1
13,910 s,O=C(NCc1cccs1)C1CCN(S(=O)(=O)c2cc(-c3noc(C4CC4)n3)cs2)CC1
14,547 s,Oc1cccc2ccc(N3CCOCC3)nc12
15,688 s,Cc1ccccc1NC(=O)C1CCc2nc(N3CCCCC3)ncc2C1 (stereo not given)
16,914 s,CCS(=O)(=O)c1nc2ccc(NS(=O)(=O)c3cc(Cl)ccc3OC)cc2s1
17,733 s,O=C(NC1CCCCC1)N1CCC(c2nc(C3CCOCC3)no2)CC1
18,776 s,COc1ccc(-c2cn3ccn(-c4ccc(F)cc4)c(=O)c3n2)cc1
19,1170 s,Cc1ccc(-n2nc(C)c3sc(N4CCCC(C(=O)NC(C)(C)C)C4)nc32)cc1 (stereo not given)
20,842 s,CCc1noc(NC(C)=O)c1-c1ccc(OC)c(S(=O)(=O)Nc2ccc(Cl)cc2F)c1
21,677 s,COc1ccc(C(=O)NCc2nnc(SCC(=O)N3CCCc4ccccc43)o2)cc1
22,980 s,O=c1[nH]c(-c2ccccc2)nc2sc(-c3ccccc3)cc12
23,1260 s,CN(C)c1ccc(/C=C2\CCc3ccccc3C2=O)cc1Br

row,RP-LC retention time,SMILES
1,922 s,CCn1ncc(Cl)c1C(=O)N1CCCC1c1ccccc1F (stereo not given)
2,688 s,CCC1Oc2ccc(S(=O)(=O)N3CCC(C(=O)NC4CC4)CC3)cc2NC1=O (stereo not given)
3,738 s,COc1ccc(-c2cc(N3CCC(NC(=O)c4cccc(Br)c4)C3)n[nH]2)cc1 (stereo not given)
4,865 s,CC(C(=O)Nc1c(F)cccc1F)C1CCN(C(=O)Nc2ccc(Cl)cc2)CC1 (stereo not given)
5,908 s,Cc1ccc(CNC(=O)CN2CCc3ccccc3C2C(=O)N2CCCCC2)cc1C (stereo not given)
6,588 s,Cc1noc(C)c1S(=O)(=O)N1CCC2(CC1)NCCc1c2[nH]c2ccccc12
7,711 s,O=C(Nc1nnc(C2CC(=O)N(c3ccc(F)cc3)C2)o1)c1ccccc1 (stereo not given)
8,872 s,O=C(NCc1ccc2c(c1)OCO2)c1n[nH]nc1Nc1ccc(F)cc1
9,766 s,CN1C(=O)Cc2cc(C(=O)NCc3ccc(F)c(Cl)c3)ccc21
10,873 s,Cc1noc(C2(NC(=O)C3CCCCC3)CCCCC2)n1
11,883 s,CC1=C(c2cccc(Cl)c2)S(=O)(=O)N=C1N1CCCN(C(=O)NC(C)(C)C)CC1
12,961 s,CCN1CCCc2cc(C(=O)NC3CCCC3)sc21
13,1220 s,O=C(Nc1nc(-c2ccccc2)cs1)c1ccc(COc2c(F)c(F)c(F)c(F)c2F)o1
14,633 s,COc1ccc(NC(=O)N2CCN(C3=CC4=NC(C)CN4C=N3)CC2)cc1Cl (stereo not given)
15,730 s,Cc1cccc(NC(=O)C2CCCN(c3ncnc4c3nc3n4CCCCC3)C2)n1 (stereo not given)
16,803 s,CC(C)n1nnc2cc(C(=O)N(C)CC(=O)Nc3ccc(Br)cc3F)ccc21
17,682 s,CC(C)CC(=O)N1CCc2c(c(-c3nncn3C(C)C)nn2C)C1
18,792 s,CCOc1ccc(C(=O)NC(C(=O)Nc2nc3ccccc3[nH]2)C(C)CC)cc1OCC (stereo not given)
19,980 s,CC1(C(=O)NCc2ccccc2)CCCN(C(=O)Nc2ccc(Br)cc2)C1 (stereo not given)
20,824 s,CCc1ccc(C2=C(C)C(N3CCCN(C(=O)C(C)C)CC3)=NS2(=O)=O)cc1
21,560 s,CCN(Cc1ccncc1)C1CN(C(=O)c2ccc3ncccc3c2)C1
22,1000 s,COc1ccc(-c2nc(CNC(=O)c3ccc(-c4noc(C(C)C)n4)cc3)no2)cc1
23,1150 s,Cc1cccc(Sc2nccnc2N2CCC(C(=O)NCc3cccc(Cl)c3)CC2)c1

row,RP-LC retention time,SMILES
1,725 s,O=C1CCN(C(=O)C2CCN(C(=O)CCC3CCCC3)CC2)CCCCCCN1
2,820 s,CN(C)c1cccc(C(=O)N2CCN(c3cc(-c4ccc(Cl)cc4)[nH]n3)CC2)c1
3,647 s,CC(C)c1nnc2n1CCN(C(=O)c1nn(C)c3ccccc13)C2
4,864 s,Cc1c(Cl)cccc1NC(=O)N1C[C@@H](F)C[C@H]1C(=O)N1CCc2ccccc2C1
5,579 s,O=C(NCCN1CCCCC1)c1cn2cc(Cl)ccc2n1
6,690 s,COc1ccc(-c2cc(N3CCC(NC(=O)c4ccc5c(c4)OCO5)C3)n[nH]2)cc1 (stereo not given)
7,697 s,CCOc1ccc(C(C)NC(=O)c2cn3ccc(C)cc3n2)cc1 (stereo not given)
8,941 s,COC(=O)c1[nH]c(C)c(C(=O)C(C)N(C(=O)c2ccccc2)C2CCCCC2)c1C (stereo not given)
9,729 s,CCCC(=O)N1CCC(c2nc(CCOCC3CC3)no2)C1 (stereo not given)
10,662 s,COc1ccc(OC)c(Nc2c(C(=O)N3CCC(C)CC3)cnc3nc(C)ccc23)c1
11,790 s,CCCCN1CC(=O)N(c2cccc(Cl)c2)[C@@H]2CS(=O)(=O)C[C@@H]21
12,681 s,CC1CCN(C(=O)c2cc(S(=O)(=O)N3CCC(C(=O)NC4CC4)CC3)cn2C)CC1
13,813 s,Cc1ccccc1N1CCN(S(=O)(=O)c2cc3n(c2)CCCN(C)C3=O)CC1
14,913 s,CCCCC(=O)N1CCN(c2nc3ccccc3cc2-c2noc(C)n2)CC1
15,698 s,COc1ccc(NC(=O)N2CCC(n3c(-c4ccoc4)nc4cccnc43)C2)cc1 (stereo not given)
16,646 s,Cc1ccc(Sc2ccc(N3CCC(C(=O)N4CCN(c5ccccn5)CC4)CC3)nn2)cc1
17,748 s,COc1ccc(Nc2c(-c3ccc(Cl)cc3)nc3ncccn23)cc1OC
18,909 s,Cc1c(C(=O)NCC2CC2)cnn1-c1cc(-c2nc(C3CC3)no2)ccn1
19,826 s,COc1ccc(NC(=O)CN2C(=O)C(C)(C)c3ccccc32)cc1
20,844 s,Cc1cc(C)c(S(=O)(=O)NC2CCCN(c3ccc(=O)n(C)n3)C2)c(C)c1 (stereo not given)
21,561 s,CC(C)C(=O)NCCN1CCN(c2ccc(F)cc2)CC1
